From the supplement of paper PMC6045584
± gives the standard deviation of the averaged measurements.

compound: COc1cc2ncnc(Nc3ccc(F)c(Cl)c3)c2cc1OCCCN1CCOCC1 [GEFITINIB]; assay: surviving fraction relative to DMSO-only wells; higher = less growth inhibition; details: 5 nM; exposure time: 5 days
Procedure, shortened: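 Continuous five-day exposure to inhibitors at 0.5, 1, 5, 10, 50, 100, 500 and 1000 nM started 24 hours after log-phase tumour cell lines were seeded at 250–500 cells per well in 384-well plates. Luminescence was read after 10 minutes at room temperature. Viability is given as surviving fraction, meaning CellTiter-Glo luminescence normalised to the median of DMSO-only wells.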

Q: A549 LUNG was tested. Which surviving fraction did it give?
A: 1.07 ± 0.04

Q: Which surviving fraction does the source give for ASKA SYNOVIAL here?
A: 1.05 ± 0.085

Q: For BT20 BREAST, which surviving fraction is on record?
A: 1.13 ± 0.11

Q: BT549 BREAST was tested. Which surviving fraction did it give?
A: 1.04 ± 0.13

Q: With CADOES1 SOFT TISSUE as the test system, how does the surviving fraction read?
A: 0.852 ± 0.063

Q: With CAL51 BREAST as the test system, how does the surviving fraction read?
A: 1.01 ± 0.015

Q: With CAL72 BONE as the test system, how does the surviving fraction read?
A: 1.05 ± 0.099

Q: With CAL120 BREAST as the test system, how does the surviving fraction read?
A: 0.968 ± 0.025

Q: With CASKI CERVIX as the test system, how does the surviving fraction read?
A: 0.851 ± 0.032

Q: With CCK81 LARGE INTESTINE as the test system, how does the surviving fraction read?
A: 0.77 ± 0.12

Q: For CHLA90 AUTONOMIC GANGLIA, which surviving fraction is on record?
A: 0.873 ± 0.052

Q: How did the surviving fraction turn out when CME SYNOVIAL was run?
A: 1.4 ± 0.12

Q: Which surviving fraction does the source give for COLO320DM LARGE INTESTINE here?
A: 1.13 ± 0.081

Q: With DU4475 BREAST as the test system, how does the surviving fraction read?
A: 0.82 ± 0.095

Q: G292 BONE was tested. Which surviving fraction did it give?
A: 1.04 ± 0.035

Q: How did the surviving fraction turn out when H23 LUNG was run?
A: 0.989 ± 0.014

Q: For HCC38 BREAST, which surviving fraction is on record?
A: 1.25 ± 0.17

Q: For HCC78 LUNG, which surviving fraction is on record?
A: 1.01 ± 0.1

Q: For HCC202 BREAST, which surviving fraction is on record?
A: 1.35 ± 0.21

Q: How did the surviving fraction turn out when HCC1806 BREAST was run?
A: 1.19 ± 0.1

Q: With HMLE3 BREAST as the test system, how does the surviving fraction read?
A: 1.07 ± 0.016

Q: HMT3552 BREAST was tested. Which surviving fraction did it give?
A: 0.97 ± 0.038

Q: Which surviving fraction does the source give for HOS BONE here?
A: 1.041 ± 0.01

Q: With HOSMNG BONE as the test system, how does the surviving fraction read?
A: 0.971 ± 0.092

Q: With HS57T BREAST as the test system, how does the surviving fraction read?
A: 1.01 ± 0.024

Q: With HSSYII SYNOVIAL as the test system, how does the surviving fraction read?
A: 1.05 ± 0.022

Q: With HT1080 SOFT TISSUE as the test system, how does the surviving fraction read?
A: 1.05 ± 0.069

Q: How did the surviving fraction turn out when HU09 BONE was run?
A: 0.972 ± 0.023

Q: HUO3N1 BONE was tested. Which surviving fraction did it give?
A: 1.05 ± 0.022

Q: How did the surviving fraction turn out when JIMT1 BREAST was run?
A: 1.03 ± 0.028

Q: With LM7 BONE as the test system, how does the surviving fraction read?
A: 1.1 ± 0.07

Q: How did the surviving fraction turn out when LNCAP PROSTATE was run?
A: 0.9827 ± 0.0059

Q: For MDAMB134 BREAST, which surviving fraction is on record?
A: 0.775 ± 0.21

Q: With MDAMB157 BREAST as the test system, how does the surviving fraction read?
A: 0.92 ± 0.057

Q: How did the surviving fraction turn out when MDAMB231 BREAST was run?
A: 1.02 ± 0.02

Q: Which surviving fraction does the source give for MDAMB361 BREAST here?
A: 0.908 ± 0.025

Q: With MDAMB436 BREAST as the test system, how does the surviving fraction read?
A: 0.994 ± 0.026

Q: How did the surviving fraction turn out when MDAMB468 BREAST was run?
A: 1.14 ± 0.087

Q: Which surviving fraction does the source give for MFM223 BREAST here?
A: 1.51 ± 0.61

same assay, conditions: 10 nM; exposure time: 5 days

Q: 22RV1 PROSTATE was tested. Which surviving fraction did it give?
A: 1 ± 0.058

Q: Which surviving fraction does the source give for 93VU HEADNECK here?
A: 1.04 ± 0.055

Q: How did the surviving fraction turn out when 143B BONE was run?
A: 1.1 ± 0.033

Q: For A549 LUNG, which surviving fraction is on record?
A: 1.02 ± 0.013

Q: ASKA SYNOVIAL was tested. Which surviving fraction did it give?
A: 1.16 ± 0.051

Q: With BT20 BREAST as the test system, how does the surviving fraction read?
A: 1.15 ± 0.043

Q: How did the surviving fraction turn out when BT549 BREAST was run?
A: 0.946 ± 0.094

Q: For CADOES1 SOFT TISSUE, which surviving fraction is on record?
A: 0.906 ± 0.13

Q: How did the surviving fraction turn out when CAL51 BREAST was run?
A: 1 ± 0.036

Q: With CAL72 BONE as the test system, how does the surviving fraction read?
A: 1.02 ± 0.082

Q: How did the surviving fraction turn out when CAL120 BREAST was run?
A: 0.956 ± 0.039

Q: How did the surviving fraction turn out when CASKI CERVIX was run?
A: 0.815 ± 0.042

Q: CCK81 LARGE INTESTINE was tested. Which surviving fraction did it give?
A: 0.72 ± 0.06

Q: With CHLA90 AUTONOMIC GANGLIA as the test system, how does the surviving fraction read?
A: 0.848 ± 0.056

Q: How did the surviving fraction turn out when CME SYNOVIAL was run?
A: 1.44 ± 0.17

Q: With COLO320DM LARGE INTESTINE as the test system, how does the surviving fraction read?
A: 1.1 ± 0.026

Q: Which surviving fraction does the source give for DU4475 BREAST here?
A: 0.914 ± 0.01

Q: With G292 BONE as the test system, how does the surviving fraction read?
A: 1.059 ± 0.0083

Q: For H23 LUNG, which surviving fraction is on record?
A: 0.918 ± 0.03

Q: HCC38 BREAST was tested. Which surviving fraction did it give?
A: 1.24 ± 0.1

Q: HCC78 LUNG was tested. Which surviving fraction did it give?
A: 0.994 ± 0.12

Q: Which surviving fraction does the source give for HCC202 BREAST here?
A: 1.06 ± 0.14

Q: With HCC1806 BREAST as the test system, how does the surviving fraction read?
A: 1.2 ± 0.11

Q: How did the surviving fraction turn out when HMLE3 BREAST was run?
A: 1.08 ± 0.031

Q: For HMT3552 BREAST, which surviving fraction is on record?
A: 0.952 ± 0.018

Q: With HOS BONE as the test system, how does the surviving fraction read?
A: 1.04 ± 0.032

Q: How did the surviving fraction turn out when HOSMNG BONE was run?
A: 1.03 ± 0.073

Q: HS57T BREAST was tested. Which surviving fraction did it give?
A: 1.02 ± 0.05

Q: How did the surviving fraction turn out when HSSYII SYNOVIAL was run?
A: 1.03 ± 0.047

Q: HT1080 SOFT TISSUE was tested. Which surviving fraction did it give?
A: 1.11 ± 0.036

Q: For HU09 BONE, which surviving fraction is on record?
A: 1.02 ± 0.079

Q: For HUO3N1 BONE, which surviving fraction is on record?
A: 1.04 ± 0.018

Q: Which surviving fraction does the source give for JIMT1 BREAST here?
A: 1.02 ± 0.022

Q: How did the surviving fraction turn out when LM7 BONE was run?
A: 1.1 ± 0.036

Q: LNCAP PROSTATE was tested. Which surviving fraction did it give?
A: 0.998 ± 0.043

Q: For MDAMB134 BREAST, which surviving fraction is on record?
A: 0.873 ± 0.0099

Q: For MDAMB157 BREAST, which surviving fraction is on record?
A: 1.01 ± 0.059

Q: How did the surviving fraction turn out when MDAMB231 BREAST was run?
A: 1.03 ± 0.024

Q: For MDAMB361 BREAST, which surviving fraction is on record?
A: 1 ± 0.042

Q: MDAMB436 BREAST was tested. Which surviving fraction did it give?
A: 1.09 ± 0.098

Q: MDAMB468 BREAST was tested. Which surviving fraction did it give?
A: 1.11 ± 0.02

Q: Which surviving fraction does the source give for MFM223 BREAST here?
A: 1.5 ± 0.53

same assay, conditions: 50 nM; exposure time: 5 days

Q: How did the surviving fraction turn out when 22RV1 PROSTATE was run?
A: 0.987 ± 0.18

Q: Which surviving fraction does the source give for 93VU HEADNECK here?
A: 0.878 ± 0.044
